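Briefly, cells in 96-well plates were exposed to five compound concentrations for 48 h, and endpoints were estimated by linear interpolation. GI50 = concentration required for 50% inhibition of growth. At the TGI there is no net growth.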
Key:
Assay in all cases: NCI tumour cell line growth inhibition, 48 h
UACC-62 melanoma = system: UACC-62 melanoma
SN12C renal = system: SN12C renal
SF-539 CNS = system: SF-539 CNS
NCI-H23 lung = system: NCI-H23 lung
NCI-H522 lung = system: NCI-H522 lung
SF-295 CNS = system: SF-295 CNS
SK-MEL-2 melanoma = system: SK-MEL-2 melanoma
HOP-62 NSCLC = system: HOP-62 NSCLC
MCF7 breast = system: MCF7 breast
BT-549 breast = system: BT-549 breast

| Structure (SMILES) | TGI (UACC-62 melanoma) | TGI (SN12C renal) | TGI (SF-539 CNS) | TGI (NCI-H23 lung) | TGI (NCI-H522 lung) | TGI (SF-295 CNS) | TGI (SK-MEL-2 melanoma) | TGI (HOP-62 NSCLC) | TGI (MCF7 breast) | GI50 (UACC-62 melanoma) | GI50 (SN12C renal) | GI50 (MCF7 breast) | GI50 (NCI-H522 lung) | GI50 (SF-295 CNS) | GI50 (SK-MEL-2 melanoma) | GI50 (HOP-62 NSCLC) | GI50 (BT-549 breast) | TGI (BT-549 breast) | GI50 (SF-539 CNS) | GI50 (NCI-H23 lung) |
| --- | --- | --- | --- | --- | --- | --- | --- | --- | --- | --- | --- | --- | --- | --- | --- | --- | --- | --- | --- | --- |
| CN(C)CC1CCCC/C1=N/O (configuration not stated) | > 100 µM | > 100 µM | > 100 µM | > 100 µM | > 100 µM | > 100 µM | > 100 µM | > 100 µM | – | – | – | – | – | – | – | – | – | – | – | – |
| CC#Cc1ccc(-c2ccccc2)s1 | > 100 µM | > 100 µM | > 100 µM | > 100 µM | > 100 µM | > 100 µM | > 100 µM | – | > 100 µM | – | – | – | – | – | – | – | – | – | – | – |
| CN(C)CC1CCC/C1=N/OC(=O)c1ccccc1 (configuration not stated) | > 100 µM | > 100 µM | > 100 µM | > 100 µM | > 100 µM | > 100 µM | > 100 µM | > 100 µM | – | – | – | – | – | – | – | – | – | – | – | – |
| COC1=CC(=O)C(C2(OC(C)C)OC(=O)C(Cl)=C2Cl)=CC1=O (configuration not stated) | > 100 µM | > 100 µM | > 100 µM | > 100 µM | 96 µM | > 100 µM | 98.8 µM | > 100 µM | > 100 µM | – | – | – | – | – | – | – | – | – | – | – |
| COc1ccc2c(c1)[n+]([O-])c(C(N)=O)c(N)[n+]2[O-] | – | > 100 µM | > 100 µM | 97.7 µM | 31.1 µM | > 100 µM | > 100 µM | > 100 µM | – | – | – | – | – | – | – | – | – | – | – | – |
| Cc1ccc(S(=O)(=O)N2CCC2c2ccccc2)cc1 (configuration not stated) | > 100 µM | > 100 µM | > 100 µM | > 100 µM | > 100 µM | > 100 µM | > 100 µM | > 100 µM | – | – | – | – | – | – | – | – | – | – | – | – |
| C/C(CN1C(=O)c2ccccc2C1=O)=N\NS(=O)(=O)c1ccc(Cl)cc1 | > 100 µM | > 100 µM | > 100 µM | > 100 µM | > 100 µM | > 100 µM | > 100 µM | > 100 µM | – | – | – | – | – | – | – | – | – | – | – | – |
| Cc1nc(-c2nc(C)c(C(=O)NNC(=O)C[n+]3ccccc3)s2)sc1C(=O)NNC(=O)C[n+]1ccccc1 | > 100 µM | > 100 µM | > 100 µM | > 100 µM | – | > 100 µM | > 100 µM | > 100 µM | – | – | – | – | – | – | – | – | – | – | – | – |
| CCOC(=O)C1Sc2ccccc2N=C1C (configuration not stated) | – | > 100 µM | > 100 µM | > 100 µM | > 100 µM | > 100 µM | > 100 µM | > 100 µM | – | – | – | – | – | – | – | – | – | – | – | – |
| Cc1ccc(-c2nc(N3CCNCC3)c3oc(-c4ccc(C)cc4)nc3n2)cc1 | 28.6 µM | 3.61 µM | – | – | 36.1 µM | 52.6 µM | > 60.9 µM | > 100 µM | 3.53 µM | 13.3 µM | 1.88 µM | 1.66 µM | 14200 nM | 12.1 µM | > 41.6 µM | 10.1 µM | 5.39 µM | 11.2 µM | – | – |
| O=S1C(=c2ccc(=C3Sc4ccccc4S3)cc2)Sc2ccccc21 (configuration not stated) | 35.2 µM | 29.3 µM | 30.5 µM | 30.2 µM | > 100 µM | 31.2 µM | 50.6 µM | 31.6 µM | – | – | – | – | – | – | – | – | – | – | – | – |
| O=C(NC1C=CCC2C(=O)N(c3ccccc3)C(=O)C12)OCc1ccccc1 (configuration not stated) | > 100 µM | > 100 µM | > 100 µM | > 100 µM | > 100 µM | > 100 µM | > 100 µM | > 100 µM | – | – | – | – | – | – | – | – | – | – | – | – |
| CCC(C)SC1SCC2C(=O)N(C)C3(CC3C)C(=O)OCC(NC(=O)c3nc4ccccc4cc3O)C(=O)NC(C)C(=O)N(C)C1C(=O)N(C)C1(CC1C)C(=O)OCC(NC(=O)c1nc3ccccc3cc1O)C(=O)NC(C)C(=O)N2C (configuration not stated) | 5.01e-05 µM | 9.55 µM | 0.000317 µM | 0.000154 µM | 0.00022 µM | 0.00153 µM | 0.000304 µM | 0.00155 µM | – | – | – | – | 0.0185 nM | – | – | – | – | 0.000693 µM | – | – |
| CNC(=O)NCCCC(NC(C)=O)C(=O)NCc1ccccc1 (configuration not stated) | > 100 µM | > 100 µM | > 100 µM | > 100 µM | > 100 µM | > 100 µM | > 100 µM | > 100 µM | – | – | – | – | – | – | – | – | – | – | – | – |
| CN(C)C=Nc1nc(=O)n(C2CCC(CO)O2)cc1F (configuration not stated) | – | > 100 µM | – | > 100 µM | > 100 µM | > 100 µM | > 100 µM | > 100 µM | – | – | – | – | – | – | – | – | – | – | – | – |
| C=C1C(=O)O[C@H]2[C@H]1CC/C(CNC(=O)c1cc3ccccc3[nH]1)=C\CC[C@@]1(C)O[C@@H]21 | – | 4.85 µM | 3.16 µM | 4.26 µM | 3.31 µM | 19.5 µM | 4.29 µM | 4.37 µM | – | – | 1.79 µM | – | 1570 nM | 6.45 µM | 1.88 µM | 1.86 µM | 1.69 µM | 3.34 µM | 1.61 µM | 1.68 µM |
| COc1ccc(/C=C/COC(C)=O)cc1OC | > 100 µM | > 100 µM | > 100 µM | > 100 µM | > 100 µM | > 100 µM | > 100 µM | – | – | – | – | – | – | – | – | – | – | – | – | – |
| O=c1c2cccnc2ncn1CCN1CCCCC1 | > 100 µM | > 100 µM | > 100 µM | > 100 µM | > 100 µM | > 100 µM | > 100 µM | > 100 µM | – | – | – | – | – | – | – | – | – | – | – | – |
| N#CC(C(=O)CCC(=O)Nc1ccc(Cl)c(Cl)c1)c1ccccc1 (configuration not stated) | > 100 µM | > 100 µM | > 100 µM | > 100 µM | – | > 100 µM | > 100 µM | > 100 µM | – | – | – | – | – | – | – | – | – | – | – | – |
| C[C@@]1(O)CC[C@]2(C)C3CCCC3[C@H]12 (some centres not stated) | > 100 µM | > 100 µM | > 100 µM | > 100 µM | > 100 µM | > 100 µM | > 100 µM | > 100 µM | – | – | – | – | – | – | – | – | – | – | – | – |
| CN(C)CC(O)c1ccc(/C=C/c2ccc(Cl)cc2)cc1 (configuration not stated) | 3.02 µM | 22.9 µM | 3.84 µM | 3.19 µM | – | 3 µM | – | 14 µM | 3.19 µM | 1.62 µM | 10.4 µM | 1.63 µM | – | 1.53 µM | – | 3.13 µM | – | – | 1.82 µM | 1.62 µM |
| Cn1cc(-c2cc3c(N4CCN(c5ncc([C@@](C)(N)c6ccc(F)cc6)cn5)CC4)ncnn3c2)cn1 | > 100 µM | > 100 µM | > 100 µM | – | – | > 100 µM | > 100 µM | > 100 µM | > 100 µM | 5.23 µM | 5.46 µM | 2.56 µM | – | 3.56 µM | 25.4 µM | 6.31 µM | 5.15 µM | > 100 µM | 1.6 µM | – |
